Source: patent US10730865B2, “Compounds for modulating aquaporins” (APOGLYX AB, priority 2016, dated 2020)

Target: human aquaporin 9 (Homo sapiens (Human), UniProt O43315)
Assay: Calcein quenching fluostar assay (inhibition of human aquaporin 9)
Assay type: cell-based
Conditions: Human AQP9 cell line; example compounds used as 1 mM stock solutions in DMSO
Experimental: Calcein Quenching Fluostar Assay
A calcein quenching fluostar assay was performed in order to investigate the biological activity of the newly synthesized examples 1 to 57. This type of assay is disclosed in J. Biol. Chem., 2011, 286, 44319-44325 and Am. J. Physiol. Renal Physiol. (2010), 298, F224-230.
1) Two days prior to commencement of the assay, seed 10,000 cells/well of 96 well black clear bottom plate (Greiner Poly-lysin plate). A 1:1 mix of Dulbecco's Modified Eagle's Medium: Nutrient Mixture F-12 (DMEM: F12) was obtained from Gibco. Tetracycline stock of 5 mg/ml in 96% ethanol is used. Medium: DMEM/F12/10% Donor Bovine Serum, Human AQP9 cell line+1:270,000 tetracyclin, mouse AQP9 cell line+1:2,700,000 tetracycline.
2) Day of assay: Flick/slam off the medium and add 50 μl/well of loading solution: 5 ml DMEM/F12/10% Donor Bovine Serum, 25 μl Calcein AM—from freshly dissolved aliquot in 50 μl DMSO (VWR #734-1434), and 100 μl Probenecid.
3) Incubate the well for 90 minutes at 37° C.
4) Perform one wash with 75 μl wash buffer.
5) Add 75 μl of an example compound prepared in wash buffer per well.
Example compounds are prepared in 500 μl U bottom PP plates (NUNC). 2.7 μl Substance in DMSO are added to row A; 180 μl of wash buffer+1% DMSO are added to rows B—H. 90 μl from row A are transferred and mixed with all other wells (up to row G) to make a 3-fold dilution series.
6) Assay in FLUOstar Optima at 25° C. Settings buffer addition at 135 μl/seconds, add 75 μl/well, record time course for 30 seconds, add sucrose buffer 3.6 seconds into recording.
7) Normalization to initial in Excel.
8) Fit to “exponential decay” function in GraphPad Prism 5.0, then arrange half live shrinking values according to wells and fit dose-response curves.

Sequence of human aquaporin 9 (O43315 whole entry): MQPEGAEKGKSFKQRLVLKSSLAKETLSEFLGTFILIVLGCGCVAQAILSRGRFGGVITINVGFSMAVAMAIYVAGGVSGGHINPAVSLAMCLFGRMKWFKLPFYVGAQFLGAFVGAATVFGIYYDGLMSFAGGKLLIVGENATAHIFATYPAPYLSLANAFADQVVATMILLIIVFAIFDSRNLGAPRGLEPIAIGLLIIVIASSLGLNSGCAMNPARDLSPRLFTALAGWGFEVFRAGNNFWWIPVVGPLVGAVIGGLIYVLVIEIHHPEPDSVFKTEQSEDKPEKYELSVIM

Row | Compound | EC50 | pEC50 in the inhibition of human aquaporin 9
1 | CCc1nnc(SCC(=O)Nc2nnc(-c3ccc(OC)cc3)s2)n1-c1ccccc1 [Example 1, 2-[(5-ethyl-4-phenyl-4H-1,2,4-triazol-3-yl)sulfanyl]-N-[5-(4-methoxyphenyl)-1,3,4-thiadiazol-2-yl]acetamide] | 173 nM | 
2 | CCc1nnc(SCC(=O)Nc2nnc(-c3ccc(OC)cc3)s2)n1CC [Example 2, 2-[(diethyl-4H-1,2,4-triazol-3-yl)sulfanyl]-N-[5-(4-methoxyphenyl)-1,3,4-thiadiazol-2-yl]acetamide] | 59 nM | 
3 | CCn1c(Cc2ccccc2)nnc1SCC(=O)Nc1nnc(-c2ccc(OC)cc2)s1 [Example 3, 2-[(5-benzyl-4-ethyl-4H-1,2,4-triazol-3-yl)sulfanyl]-N-[5-(4-methoxyphenyl)-1,3,4-thiadiazol-2-yl]acetamide] | 195 nM | 6.7
4 | CCn1c(OCC(=O)Nc2nnc(-c3ccc(OC)cc3)s2)nnc1-c1ccc(F)cc1 [Example 4, 2-{[4-ethyl-5-(4-fluorophenyl)-4H-1,2,4-triazol-3-yl]oxy}-N-[5-(4-methoxyphenyl)-1,3,4-thiadiazol-2-yl]acetamide] | 175 nM | 
5 | CCn1c(C)nnc1SCC(=O)Nc1nnc(-c2ccc(S(C)(=O)=O)cc2)s1 [Example 5, 2-[(4-ethyl-5-methyl-4H-1,2,4-triazol-3-yl)sulfanyl]-N-[5-(4-methanesulfonylphenyl)-1,3,4-thiadiazol-2-yl]acetamide] | 455 nM | 
6 | CCn1c(SCC(=O)Nc2nnc(-c3ccc(S(C)(=O)=O)cc3)s2)nnc1C(C)C [Example 6, 2-{[4-ethyl-5-(propan-2-yl)-4H-1,2,4-triazol-3-yl]sulfanyl}-N-[5-(4-methanesulfonylphenyl)-1,3,4-thiadiazol-2-yl]acetamide] | 192 nM | 6.7
7 | CCn1c(SCC(=O)Nc2nnc(-c3ccc(S(C)(=O)=O)cc3)s2)nnc1C1CC1 [Example 7, 2-[(5-cyclopropyl-4-ethyl-4H-1,2,4-triazol-3-yl)sulfanyl]-N-[5-(4-methanesulfonylphenyl)-1,3,4-thiadiazol-2-yl]acetamide] | 105 nM | 7
8 | CCc1nnc(SCC(=O)Nc2nnc(-c3ccc(S(C)(=O)=O)cc3)s2)n1CC [Example 8, 2-[(diethyl-4H-1,2,4-triazol-3-yl)sulfanyl]-N-[5-(4-methanesulfonylphenyl)-1,3,4-thiadiazol-2-yl]acetamide] | 66 nM | 7.2
9 | CCn1c(SCC(=O)Nc2ccc(-c3ccc(OC)cc3)nn2)nnc1-c1ccc(F)cc1 [Example 9, 2-{[4-ethyl-5-(4-fluorophenyl)-4H-1,2,4-triazol-3-yl]sulfanyl}-N-[6-(4-methoxyphenyl)pyridazin-3-yl]acetamide] | 87 nM | 
10 | CCc1nnc(SCC(=O)Nc2nnc(-c3ccc(OC)cc3)s2)n1C [Example 10, 2-[(5-ethyl-4-methyl-4H-1,2,4-triazol-3-yl)sulfanyl]-N-[5-(4-methoxyphenyl)-1,3,4-thiadiazol-2-yl]acetamide] | 101 nM | 7
11 | COc1ccc(-c2nnc(NC(=O)CSc3nnc(C)n3-c3ccccc3)s2)cc1 [Example 11, N-[5-(4-methoxyphenyl)-1,3,4-thiadiazol-2-yl]-2-[(5-methyl-4-phenyl-4H-1,2,4-triazol-3-yl)sulfanyl]acetamide] | 394 nM | 6.4
12 | CCc1nnc(SCC(=O)Nc2nnc(-c3ccc(SC)cc3)s2)n1CC [Example 12] | 57 nM | 
13 | CCc1nnc(SCC(=O)Nc2nnc(-c3ccc(OCC(C)C)cc3)s2)n1CC [Example 13, 2-[(diethyl-4H-1,2,4-triazol-3-yl)sulfanyl]-N-{5-[4-(2-methylpropoxy)phenyl]-1,3,4-thiadiazol-2-yl}acetamide] | 101 nM | 7
14 | CCc1ccc(-c2nnc(NC(=O)CSc3nnc(CC)n3CC)s2)cc1 [Example 14, 2-[(diethyl-4H-1,2,4-triazol-3-yl)sulfanyl]-N-[5-(4-ethylphenyl)-1,3,4-thiadiazol-2-yl]acetamide] | 65 nM | 7.2
15 | CCCc1ccc(-c2nnc(NC(=O)CSc3nnc(CC)n3CC)s2)cc1 [Example 15, 2-[(diethyl-4H-1,2,4-triazol-3-yl)sulfanyl]-N-[5-(4-propylphenyl)-1,3,4-thiadiazol-2-yl]acetamide] | 57 nM | 
16 | CCCCc1ccc(-c2nnc(NC(=O)CSc3nnc(CC)n3CC)s2)cc1 [Example 16, 2-[(diethyl-4H-1,2,4-triazol-3-yl)sulfanyl]-N-[5-(4-butylphenyl)-1,3,4-thiadiazol-2-yl]acetamide] | 179 nM | 
17 | CCc1nnc(SCC(=O)Nc2nnc(-c3ccccc3)s2)n1CC [Example 17, 2-[(diethyl-4H-1,2,4-triazol-3-yl)sulfanyl]-N-(5-phenyl-1,3,4-thiadiazol-2-yl)acetamide] | 127 nM | 6.9
18 | CCc1nnc(SCC(=O)Nc2nnc(-c3ccc4c(c3)CCO4)s2)n1CC [Example 18, 2-[(diethyl-4H-1,2,4-triazol-3-yl)sulfanyl]-N-[5-(2,3-dihydro-1-benzofuran-5-yl)-1,3,4-thiadiazol-2-yl]acetamide] | 124 nM | 6.9
19 | CCc1nnc(SCC(=O)Nc2nnc(-c3ccc(CC(C)C)cc3)s2)n1CC [Example 19, 2-[(diethyl-4H-1,2,4-triazol-3-yl)sulfanyl]-N-{5-[4-(2-methylpropyl)phenyl]-1,3,4-thiadiazol-2-yl}acetamide] | 94 nM | 
20 | CCc1nnc(SCC(=O)Nc2nnc(-c3ccc(C(C)C)cc3)s2)n1CC [Example 20, 2-[(diethyl-4H-1,2,4-triazol-3-yl)sulfanyl]-N-{5-[4-(propan-2-yl)phenyl]-1,3,4-thiadiazol-2-yl}acetamide] | 79 nM | 7.1
21 | CCc1nnc(SCC(=O)Nc2nnc(-c3ccc(O)cc3)s2)n1CC [Example 21, 2-[(diethyl-4H-1,2,4-triazol-3-yl)sulfanyl]-N-[5-(4-hydroxyphenyl)-1,3,4-thiadiazol-2-yl]acetamide] | 224 nM | 
22 | CCn1c(CCOC)nnc1SCC(=O)Nc1nnc(-c2ccccc2)s1 [Example 22, 2-{[4-ethyl-5-(2-methoxyethyl)-4H-1,2,4-triazol-3-yl]sulfanyl}-N-(5-phenyl-1,3,4-thiadiazol-2-yl)acetamide] | 249 nM | 
23 | CCn1c(CCOC)nnc1SCC(=O)Nc1nnc(-c2ccc(OC(C)C)cc2)s1 [Example 23, 2-{[4-ethyl-5-(2-methoxyethyl)-4H-1,2,4-triazol-3-yl]sulfanyl}-N-{5-[4-(propan-2-yloxy)phenyl]-1,3,4-thiadiazol-2-yl}acetamide] | 39 nM | 7.4
24 | CCCc1ccc(-c2nnc(NC(=O)CSc3nnc(CCOC)n3CC)s2)cc1 [Example 24, 2-{[4-ethyl-5-(2-methoxyethyl)-4H-1,2,4-triazol-3-yl]sulfanyl}-N-[5-(4-propylphenyl)-1,3,4-thiadiazol-2-yl]acetamide] | 41 nM | 7.4
25 | CCOc1ccc(-c2nnc(NC(=O)CSc3nnc(CC)n3CC)s2)cc1 [Example 25, 2-[(diethyl-4H-1,2,4-triazol-3-yl)sulfanyl]-N-[5-(4-ethoxyphenyl)-1,3,4-thiadiazol-2-yl]acetamide] | 42 nM | 
26 | CCc1nnc(SCC(=O)Nc2nnc(-c3ccc(OCCF)cc3)s2)n1CC [Example 26, 2-[(diethyl-4H-1,2,4-triazol-3-yl)sulfanyl]-N-{5-[4-(2-fluoroethoxy)phenyl]-1,3,4-thiadiazol-2-yl}acetamide] | 43 nM | 
27 | CCOc1ccc(-c2nnc(NC(=O)CSc3nnc(C(C)C)n3CC)s2)cc1 [Example 27, N-[5-(4-ethoxyphenyl)-1,3,4-thiadiazol-2-yl]-2-{[4-ethyl-5-(propan-2-yl)-4H-1,2,4-triazol-3-yl]sulfanyl}acetamide] | 69 nM | 
28 | CCn1c(SCC(=O)Nc2nnc(-c3ccc(OCCF)cc3)s2)nnc1C(C)C [Example 28, 2-{[4-ethyl-5-(propan-2-yl)-4H-1,2,4-triazol-3-yl]sulfanyl}-N-{5-[4-(2-fluoroethoxy)phenyl]-1,3,4-thiadiazol-2-yl}acetamide] | 44 nM | 
29 | CCn1c(SCC(=O)Nc2nnc(-c3ccc(OC(C)C)cc3)s2)nnc1C(C)C [Example 29, 2-{[4-ethyl-5-(propan-2-yl)-4H-1,2,4-triazol-3-yl]sulfanyl}-N-{5-[4-(propan-2-yloxy)phenyl]-1,3,4-thiadiazol-2-yl}acetamide] | 90 nM | 
30 | CCc1nnc(SCC(=O)Nc2nnc(-c3ccc(OCCOC)cc3)s2)n1CC [Example 30, 2-[(diethyl-4H-1,2,4-triazol-3-yl)sulfanyl]-N-{5-[4-(2-methoxyethoxy)phenyl]-1,3,4-thiadiazol-2-yl}acetamide] | 21 nM | 
